Holding throughout (format): binding
The subject of one experiment is PSA. Nature of the experiment: SPR sensitivity detection with micro concentration antigen, chip with Rabbit IgG. The following applies: Rabbit IgG absorbed on chip, Rabbit IgG flowed again for increasing signal, FIG. 7A. From the text: In the following experiments, antigen in micro concentration is employed for detecting the sensitivity of peptide ligand chips being able to recognize Rabbit IgG and Mouse IgG2a, and the experimental results are shown in FIG. 7A and FIG. 7B.
Chain of Rabbit IgG (P01870 101-323 limits assumed): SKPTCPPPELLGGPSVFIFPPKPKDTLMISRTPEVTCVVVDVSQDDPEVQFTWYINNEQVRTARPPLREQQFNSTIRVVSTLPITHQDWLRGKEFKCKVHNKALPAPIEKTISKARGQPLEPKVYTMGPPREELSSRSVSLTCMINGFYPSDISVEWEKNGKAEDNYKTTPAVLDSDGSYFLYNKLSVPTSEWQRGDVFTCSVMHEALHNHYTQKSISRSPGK
Firstly, Rabbit IgG and Mouse IgG2a are respectively absorbed to GGEGELW and GGRRGW. After flowing micro concentration antigen through, Rabbit IgG and Mouse IgG2a are flowed through the chip surface for increasing the detected signal. […] According to FIG. 7A and FIG. 7B, the signal of about 2 ng/mL PSA can be detected from Mouse IgG2a of GGRRGW chip surface, and the signal of about 1 ng/mL PSA can be detected from Rabbit IgG of GGEGELW chip surface. Therefore, it proves that the peptide ligand of this specification can efficiently improve the antigen sensitivity.

Experiment [1] has as its system prostate specific antigen (PSA). Kind of experiment: SPR PSA absorption / antigen recognition on chip surfaces with Rabbit IgG. The following applies: FIG. 4A. The text has this: (§1) In this example, SPR is employed for measuring the absorption of target antibody, rabbit immunoglobulin (Rabbit IgG), and target antigen, prostate specific antigen (PSA), on different charge surfaces and different peptide ligand surfaces. The mentioned different chip surfaces are employed for absorbing Rabbit IgG, washed with phosphate buffer (PB) solution, and employed to absorb PSA directly. Then, PB buffer solution is used to wash out the PSA not recognized by Rabbit IgG for measuring the absorption of antibody and antigen. The experimental process is roughly shown as following.
(§2) 1. 10 μg/mL Rabbit IgG is prepared in 0.01 M pH=7.4 PB buffer solution.
2. 5 μg/mL PSA is prepared in 0.01 M pH=7.4 PB buffer solution.
3. The negative charge, positive charge, and peptide ligand modified chips are put on SPR respectively.
4. The flow rate is set at 20 μL/min.
5. Rabbit IgG, PB, PSA, and PB are flowed through the channel in sequence. The absorption time is about 60 minutes, and the desorption time is about 50 minutes.
(§3) Different chips with Rabbit IgG and Mouse IgG2a are used for PSA absorption experiment, and the PSA absorption is transferred to protein absorption by the above-mentioned formula, as shown in FIG. 3A and FIG. 3B.
(§4) In order to compare antigen recognition efficiency, we define “antigen recognition efficiency” as following: […]

Experiment [2] has as its system Mouse IgG2a. Nature of the experiment: SPR absorption of Mouse IgG2a on different chip surfaces. As to conditions: FIG. 2. From the text:
(§5) In this and the following examples, we employ Surface Plasmon resonance (SPR) as detecting equipment. The method for modifying SPR chip surface is briefly illustrated as following.
(§6) OEG [(11-Mercaptoundecyl)tetra(ethyleneglycol)] and OEG-COOH [HS(CH2)11(EG)6OCH2COOH] are mixed at the ratio of 10:1. Through strong gold-sulfur bonding, OEG and OEG-COOH are employed for modifying SPR chip surface to form mixed SAM (self-assembly monolayer). The mixed SAM surface comprises carboxyl group with negative charge, and hydroxyl group with hydrophilicity. The carboxyl group with negative charge on the SPR chip surface can be activated by EDC/20% DMSO. By reacting the 1° amino group of EDA (ethylenediamine) with the carboxyl group on the SPR chip surface to form amide bonding, the SPR chip surface can be modified into positive charge. And, in the same condition, the peptide ligand according to this invention can be grafted onto the SPR chip surface to form a peptide ligand surface.)
(§7) 1. 5 mM peptide ligand, 200 mM EDC, and 20% DMSO are prepared into 0.1 M pH=6.0 MES buffer solution.
(§8) In the above experiments, Surface Plasmon Resonance (SPR) is employed for measuring the antigen recognition efficiency of antibody on different modified chip surfaces. The recognition efficiency of Rabbit IgG and PSA on different chip with different charge surface and different peptide ligand is detected. […]

Another experiment deals with Rabbit IgG. Nature of the experiment: SPR absorption of Rabbit IgG on different chip surfaces.
From the text: as §5, §6, §7, §1, §2
3. […]
as §8

Experiment [3] relates to prostate specific antigen (PSA). Nature of the experiment: SPR PSA absorption / antigen recognition on chip surfaces with Mouse IgG2a.
From the text: as §1, §3, §4

In experiment [4] the test system is Mouse IgG2a. Kind of experiment: SPR analysis of antibody oriented immobilization (orientation factor), Mouse IgG2a. As to conditions: ratio of PSA and 2nd antibody, FIG. 6B. For orientation: Surface plasmon resonance follows binding to a sensor surface in real time, without labels.
Target sequence in this assay (P01863 98-330 limits assumed): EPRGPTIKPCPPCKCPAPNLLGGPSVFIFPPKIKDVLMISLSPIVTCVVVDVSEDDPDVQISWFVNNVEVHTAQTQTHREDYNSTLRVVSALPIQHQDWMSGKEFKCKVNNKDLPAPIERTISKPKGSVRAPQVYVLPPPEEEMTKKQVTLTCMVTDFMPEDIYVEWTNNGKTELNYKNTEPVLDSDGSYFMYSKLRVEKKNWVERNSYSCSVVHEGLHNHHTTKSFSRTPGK

“Also recorded” adds a separate entry of the source.

GGEGELW: in the experiment on PSA, the “PSA concentration whose signal can be detected by SPR” value was “about 1 ng/mL”.

Take RRGW: the “antigen recognition efficiency of Rabbit IgG” value in experiment [1] is recorded as “not good”. Moreover, the “Mouse IgG2a absorption on chip surface (in words)” value in the experiment with Mouse IgG2a [2] is recorded as “great; also recorded: higher”. Moreover, the “specificity to these antibodies” value with Rabbit IgG (Rabbit IgG versus Mouse IgG2a absorption, FIG. 1B compared with FIG. 2) is “does not have specificity”. In addition, the “Rabbit IgG absorption on chip surface (in words)” value in the experiment on Rabbit IgG (SPR, FIG. 1B) is given as “not much difference; also recorded: great”. The “Rabbit IgG absorption to the chip surface” value in the experiment on Rabbit IgG (SPR, peptide ligand chip surface, FIG. 3A) was “about 0.2 mol/cm^2”. The “antigen recognition efficiency of Mouse IgG2a” value in experiment [3] (PSA, FIG. 4B) is “great”. Besides, the “PSA absorption on chip surface with Mouse IgG2a (in words)” value in experiment [3] (SPR, FIG. 3B) is “great”. Moreover, the “oriented immobilization of Mouse IgG2a on chip surface” value in experiment [3] (deduced from Mouse IgG2a and PSA absorption) was “great”. Further, in the experiment on Mouse IgG2a [4], the “orientation factor, chip surface with Mouse IgG2a” value is reported as “good”.

The record behind these values is patent US20160046665A1, “Peptide Ligand with Antibody Selectivity and the Application Thereof” (National Central University, priority 2014, published 2016).
